Legend:
[1] = tested on: HepG2 cells (human hepatic carcinoma); assay: Antiproliferative activity, 48 h treatment, ATPlite luminescence assay, HepG2; format: cell-based; conditions: Homo sapiens, HepG2, read-out: Antiproliferative activity (IC50 ± S.D., μM) HepG2
Description: HepG2: maintained in EMEM medium+10% FCS.
24 hours after seeding, an aliquot (10 μl) of the drug at the various concentrations is added (for each concentration there are 3 replicates). After 48 hours of treatment the antiproliferative effect is evaluated with a luminescence assay (Perkin Elmer Life Sciences ATPlite):
50 μl of a lysis solution are added to each well followed by an equal volume of a solution containing luciferase and D-luciferin. The ATP present in all the metabolically active cells brings about the transformation reaction of D-luciferin, catalysed by luciferase, to produce a luminescent signal as described in the following scheme: ATP+D-luciferin+O2→Oxyluciferin+AMP+PPi+CO2+Light
The luminescence produced (expressed in counts per second, CPS) is measured by means of a microplate scintillation analyzer (Perkin Elmer Life Sciences Top Count).
Percentage inhibition of luminescence in the treated cells compared to the control is calculated; concentration-response curves are then analysed using Grafit v.5.0.

[2] = tested on: HT29/Mit human colon carcinoma xenografts; assay: HT29/Mit human colon carcinoma xenografts, antitumor activity; format: in vivo, athymic Swiss nude mice; conditions: HT29/Mit xenograft, p.o.; topotecan 15 mg/Kg every 4 days for 3 administrations; compound of example 2 30 mg/kg; alone or combined
Description: Female athymic Swiss nude mice (8-10 weeks old) (Charles River, Calco, Italy) were used for the experiments. The animals were maintained at constant temperature and humidity, and were allowed to eat and drink freely. The experimental protocol was approved by the Ethics Committee for Animal Experimentation of the Istituto Nazionale Tumori of Milan.
The antitumour effectiveness of the compounds of the invention under discussion was tested on athymic mouse models implanted with HT29 and/or HT29/Mit tumour cells: this latter variety is highly resistant to topotecan treatment. The tumour cells were implanted in vivo via subcutaneous injection of 10^7 cells taken from in vitro cultures. Randomized groups of five mice with bilateral subcutaneous tumours were used for the experiment.
Topotecan or other known antitumour agents (dissolved in distilled water or an appropriate solvent) and the compounds of the invention (dissolved in Cremophor EL:ethanol:saline solution in the proportions 5:5:90, or in an appropriate solvent) were administered orally from the third day, alone or in combination, in agreement with a treatment scheme selected in an appropriate manner depending on the type of compound to be studied.
The weight (or volume) of the tumour in treated mice compared to controls is represented graphically on the y-axis against time (x-axis).

CCOc1cc(C(=O)NC2CC(C)(C)NC(C)(C)C2)ccc1-c1cc2cc(Cl)c(Cl)cc2[nH]1 [Example 2]
IC50 [1]: 2 ± 0.1 µM | Inhibition of tumour growth [2]: poorly effective

— patent US20070299084A1, “Indole Derivatives Useful for Treating Resistance to Antitumor Agents” (NIKEM RESE S.R.L., priority 2004, published 2007)
